Assay results reported in article PMC11724075, “Small-molecule-induced ERBB4 activation to treat heart failure” (Nature Communications, 2025).
“And” between values parts separate entries of the source, which are not always exact repeats. Equal entries are not always repeated.

What was measured:
[1] = test system: iAMs; assay: TUNEL assay in H2O2-treated iAMs; format: cell-based, rat; set-up: In vitro TUNEL assay: unit not given here
Description: To assess apoptosis, a TUNEL assay was performed using the In Situ Cell Death Detection Kit, Fluorescein (Merck, 11684795910) according to the manufacturer’s instructions. After the 4-h incubation, the cells were fixed with 4% paraformaldehyde for 15 min at room temperature, followed by permeabilization with 0.1% Triton X-100 in 0.1% sodium citrate for 2 min on ice. Cells were then incubated with the TUNEL reaction mixture in a humidified chamber at 37 °C for 1 h in the dark. After washing with PBS, the samples were analyzed using fluorescence microscopy to detect apoptotic cells. […]
1 on TUNEL staining (red).
positive cells (n=7 biological replicates in Veh group, n=9 biological replicates for H2O2/Veh group, n=11 […]

[2] = test system: Erbb4-null mice; assay: AngII-induced myocardial fibrosis in Erbb4-null mice, Masson's trichrome fibrosis; format: in vivo, mouse; set-up: Perivascular fibrosis: dose or concentration left out as unconfirmed
Description: Four weeks after implantation, cardiac ultrasound was performed, mice were euthanized, and hearts were collected. A similar set-up was used for the 1-week study (Alzet, model 1007D) in male mice (n = 9-10 mice in every group).
(§1) Floxed Erbb4 mice (Erbb4^f/f; C57BL/6N; 129-Erbb4tm1Fej/Mmucd, MMRRC, #010439-UCD) were crossed with CAGGCre-ER^TM mice (Jackson Laboratory, 004682) containing the Tg(CAG-cre/Esr1*)5Amc transgene that expresses Cre recombinase under the control of a chicken beta actin promoter/enhancer coupled to the human cytomegalovirus immediate-early gene enhancer, resulting in expression of tamoxifen-inducible Cre-ERT in most cell types. To induce Cre recombinase-mediated deletion of Erbb4, eleven-week-old female and male iCAGGCre-ER^TM/Erbb4^f/f mice were intraperitoneally injected with tamoxifen (Merck, T5648; 10 mg/kg; in corn oil) daily for 5 consecutive days.
(§2) Hearts were fixed in 4% PFA, paraffin-embedded, and cut into 5-µm sections. Images were acquired with an Olympus BX43 microscope (Olympus Stream Motion Software) or a CELENA® S Digital Imaging System and analyzed with ImageJ 2.14.0 software. Collagen distribution was visualized by Masson’s trichrome staining. Cardiac total fibrosis was expressed as the ratio of positively stained fibrotic area (blue) to the total area and perivascular fibrosis as the ratio of fibrotic area to vascular lumen area. Scar size was determined by measuring the scar length over the […]. Hypertrophy and vascularisation were visualized via an isolectin-B4/WGA/DAPI staining. Quantification was performed by a person blinded to the treatment protocol.

[3] = test system: iCAGCre-Erbb4f/f mice; assay: AngII-induced fibrosis in iCAGCre-Erbb4f/f mice injected with corn oil without tamoxifen; format: in vivo, mouse
Text: as §1, §2
Supplementary Figure 6. Effect of AngII in male WT mice with compound NA-1 and the validation of genotype and phenotype of iCAGCre-Erbb4 f/f mice. […]
Uncropped gel is presented in Supplementary Figure 9. (c) Survival curve depicting the effects of 1000 ng/kg AngII treatment on mouse survival (ctrl = black line; 1000 ng/kg AngII = red line; n=6 male and female mice in Ctrl group and n=15 mice who received 1000 ng/kg AngII treatment). (d) Representative images of Masson’s trichrome staining of AngII-induced myocardial fibrosis in iCAGCre- […]
and n=10 male and female ice in AngII/Veh group). Scale bar = 500 µm for total fibrosis, scale bar = 50 µm for perivascular fibrosis. […]

[4] = test system: mouse model of MI; assay: Mouse model of MI, histology: CSA, capillaries, interstitial fibrosis, scar size; format: in vivo
Description: Twelve-week-old female and male Balb/cJ (Charles River, 000651) mice were randomized into either the ctrl or MI group. Mice in the MI group underwent surgical ligation of the LAD, while mice in the ctrl group underwent a sham procedure (n = 8 female mice, n = 10 male mice). Briefly, all mice received an injection of 0.1 mg/kg buprenorphine (Produlab Pharma) before induction of anesthesia with 8% sevoflurane (Zoetis). Anesthesia was maintained with 4.5% sevoflurane and mice were intubated and ventilated. An incision of 15 mm was made on the left side of the thorax and the thoracic cavity was opened at the third intercostal space using blunt forceps. The LAD was permanently ligated with a 8/0 polypropylene monofilament sutures (Ethicon, F1894) after which the thoracic cavity and skin were closed with 6/0 polypropylene monofilament sutures (Ethicon, F1841). and 5/0 polyamide 6 sutures (Ethilon, F2412H), respectively. Mice received another dose of 0.1 mg/kg buprenorphine 6–8 h after the initial dose. Two days after surgery, cardiac ultrasound was performed to exclude mice without successful MI (i.e. displaying hypokinesia in ≥2 out of 5 segments). […] Cardiac ultrasound was performed weekly. After 4 weeks of treatment, mice were euthanized, and hearts were collected.
as §2

[5] = MI experiment, female mice, MI/EF-1

Q: Which “number of TUNEL-positive (apoptotic) cells (in words)” value ([1]; 100 µM H2O2) does the source give for O=C(NC1CC1)C(Sc1nc2ccccc2c(=O)n1C1CCCC1)c1ccccc1 (centres unmarked) [EF-1] here?
A: significantly reduced this number

Q: What about the “In vitro TUNEL assay” value ([1]; H2O2/EF-1, individual replicates) of the same compound?
A: 23.25 and 37.594 and 36.981 and 17.145 and 24.708 and 40.03 and 14.87 and 23.901 and 20.679 and 24.2124 and 24.656

Q: What about the Total fibrosis ([2]; male+female Erbb4-null mice, AngII/EF-1, AngII 400 ng/kg/day, single animals) of the same compound?
A: 3.25 and 2.45 and 2.12 and 2.92 and 4.07

Q: And the Perivascular fibrosis ([2]; male+female Erbb4-null mice, AngII/EF-1, single animals)?
A: 0.6515 and 1.352 and 0.6814 and 0.7388 and 1.066

Q: And the “effect on AngII-induced interstitial or perivascular fibrosis in Erbb4-null mice (in words)” value ([2]; mouse, in vivo)?
A: did not significantly prevent interstitial or perivascular AngII-induced fibrosis

Q: What about the “Perivascular fibrosis male+female in vivo corn oil-treated iCAGCre-Erbb4f/f mice with EF-1” value ([3]; AngII/EF-1, individual animals) of the same compound?
A: 0.8706 and 1.275 and 0.6537 and 2.675 and 0.6132 and 2.541 and 1.901 and 0.8014

Q: What about the “Total fibrosis male+female in vivo corn oil-treated iCAGCre-Erbb4f/f mice with EF-1” value ([3]; AngII/EF-1, individual animals) of the same compound?
A: 3.59 and 3.39 and 3.18 and 4.74 and 4.82 and 3.84 and 3.53 and 4.29 and 4.51

Q: What about the “inhibitory effects on AngII-induced interstitial and perivascular fibrosis (in words)” value ([3]; iCAGCre-Erbb4f/f mice injected with corn oil without tamoxifen) of the same compound?
A: preserved

Q: And the “capillary density (#cap./100 CMs)” value [4, 5]?
A: 126.379 #cap./100 CMs and 126.085 #cap./100 CMs and 117.771 #cap./100 CMs and 154.255 #cap./100 CMs and 147.06 #cap./100 CMs and 123.257 #cap./100 CMs and 102.661 #cap./100 CMs

Q: And the “capillary density (#cap./area)” value [4, 5]?
A: 2.749 #cap./area and 3.344 #cap./area and 2.607 #cap./area and 4.068 #cap./area and 3.029 #cap./area and 3.536 #cap./area and 2.904 #cap./area

Q: And the “cardiomyocyte cross-sectional area in MI/EF-1 group (in words)” value ([4]; both male and female mice)?
A: significant increase in cross-sectional area

Q: What about the “interstitial fibrosis in the remote myocardium of the infarcted hearts (in words)” value ([4]; female mice) of the same compound?
A: significantly lower

Q: What about the “number of capillaries per area (µm²) of the heart in MI/EF-1 group (in words)” value ([4]; female mice) of the same compound?
A: marked decrease in number of capillaries per area

Q: And the “scar size (in words)” value ([4]; female or male mice)?
A: did not affect scar size
